F/C=C/C(F)(F)F [trans-1,3,3,3-tetrafluoropropene]
Settings	mass density [kg/m3]
343.15 K, 9736 kPa, Liquid, Vibrating tube method	1068.9
343.15 K, 10753 kPa, Liquid, Vibrating tube method	1076.1
343.15 K, 11770 kPa, Liquid, Vibrating tube method	1082.8
343.15 K, 12788 kPa, Liquid, Vibrating tube method	1089.2
343.15 K, 15829 kPa, Liquid, Vibrating tube method	1106.7
343.15 K, 17849 kPa, Liquid, Vibrating tube method	1117.1
343.15 K, 18851 kPa, Liquid, Vibrating tube method	1122
343.15 K, 19867 kPa, Liquid, Vibrating tube method	1126.8
343.15 K, 20877 kPa, Liquid, Vibrating tube method	1131.4
343.15 K, 21883 kPa, Liquid, Vibrating tube method	1135.8
343.15 K, 22905 kPa, Liquid, Vibrating tube method	1140.2
343.15 K, 23913 kPa, Liquid, Vibrating tube method	1144.3
343.15 K, 24913 kPa, Liquid, Vibrating tube method	1148.4
343.15 K, 25929 kPa, Liquid, Vibrating tube method	1152.4
343.15 K, 26933 kPa, Liquid, Vibrating tube method	1156.2
343.15 K, 27938 kPa, Liquid, Vibrating tube method	1160
343.15 K, 28947 kPa, Liquid, Vibrating tube method	1163.6
343.15 K, 29953 kPa, Liquid, Vibrating tube method	1167.2
343.15 K, 30968 kPa, Liquid, Vibrating tube method	1170.7
343.15 K, 31987 kPa, Liquid, Vibrating tube method	1174.2
343.15 K, 32989 kPa, Liquid, Vibrating tube method	1177.5
343.15 K, 33994 kPa, Liquid, Vibrating tube method	1180.8
343.16 K, 13798 kPa, Liquid, Vibrating tube method	1095.3
343.16 K, 14817 kPa, Liquid, Vibrating tube method	1101.1
343.16 K, 16838 kPa, Liquid, Vibrating tube method	1112
352.95 K, 306.8 kPa, Gas, isochoric method	12.346
352.96 K, 306.9 kPa, Gas, isochoric method	12.346
352.99 K, 522.8 kPa, Gas, isochoric method	21.739
353 K, 191.9 kPa, Gas, isochoric method	7.634
353 K, 672 kPa, Gas, isochoric method	28.571
353 K, 672.1 kPa, Gas, isochoric method	28.571
353 K, 867.3 kPa, Gas, isochoric method	38.462
353.01 K, 84.1 kPa, Gas, isochoric method	3.3
353.01 K, 191.9 kPa, Gas, isochoric method	7.634
353.01 K, 458.4 kPa, Gas, isochoric method	19.231
353.01 K, 739.8 kPa, Gas, isochoric method	32.258
353.02 K, 84.1 kPa, Gas, isochoric method	3.3
353.02 K, 739.8 kPa, Gas, isochoric method	32.258
353.03 K, 950.8 kPa, Gas, isochoric method	43.478
353.14 K, 30961 kPa, Liquid, Vibrating tube method	1149
353.15 K, 2236 kPa, Liquid, Vibrating tube method	936.2
353.15 K, 9793 kPa, Liquid, Vibrating tube method	1035.4
353.15 K, 12814 kPa, Liquid, Vibrating tube method	1058.8
353.15 K, 15825 kPa, Liquid, Vibrating tube method	1078.4
353.15 K, 16834 kPa, Liquid, Vibrating tube method	1084.4
353.15 K, 18850 kPa, Liquid, Vibrating tube method	1095.7
353.15 K, 19865 kPa, Liquid, Vibrating tube method	1101
353.15 K, 21883 kPa, Liquid, Vibrating tube method	1111
353.15 K, 22889 kPa, Liquid, Vibrating tube method	1115.7
353.15 K, 24907 kPa, Liquid, Vibrating tube method	1124.7
353.15 K, 25928 kPa, Liquid, Vibrating tube method	1129.2
353.15 K, 26934 kPa, Liquid, Vibrating tube method	1133.3
353.15 K, 27950 kPa, Liquid, Vibrating tube method	1137.5
353.15 K, 28953 kPa, Liquid, Vibrating tube method	1141.4
353.15 K, 29957 kPa, Liquid, Vibrating tube method	1145.2
353.15 K, 31977 kPa, Liquid, Vibrating tube method	1152.7
353.15 K, 32983 kPa, Liquid, Vibrating tube method	1156.3
353.15 K, 33998 kPa, Liquid, Vibrating tube method	1159.9
353.16 K, 2681 kPa, Liquid, Vibrating tube method	945.9
353.16 K, 3704 kPa, Liquid, Vibrating tube method	964.9
353.16 K, 4723 kPa, Liquid, Vibrating tube method	980.5
353.16 K, 5740 kPa, Liquid, Vibrating tube method	994
353.16 K, 6749 kPa, Liquid, Vibrating tube method	1005.9
353.16 K, 7775 kPa, Liquid, Vibrating tube method	1016.7
353.16 K, 8789 kPa, Liquid, Vibrating tube method	1026.5
353.16 K, 10794 kPa, Liquid, Vibrating tube method	1043.6
353.16 K, 11799 kPa, Liquid, Vibrating tube method	1051.4
353.16 K, 13815 kPa, Liquid, Vibrating tube method	1065.7
353.16 K, 14816 kPa, Liquid, Vibrating tube method	1072.2
353.16 K, 17837 kPa, Liquid, Vibrating tube method	1090.2
353.16 K, 20878 kPa, Liquid, Vibrating tube method	1106.1
353.16 K, 23896 kPa, Liquid, Vibrating tube method	1120.3
362.94 K, 86.6 kPa, Gas, isochoric method	3.3
362.94 K, 316.2 kPa, Gas, isochoric method	12.346
362.94 K, 316.3 kPa, Gas, isochoric method	12.346
362.95 K, 473.2 kPa, Gas, isochoric method	18.868
362.96 K, 197.6 kPa, Gas, isochoric method	7.634
362.96 K, 473.2 kPa, Gas, isochoric method	18.868
362.96 K, 540 kPa, Gas, isochoric method	21.739
362.96 K, 695.3 kPa, Gas, isochoric method	28.571
362.97 K, 899.7 kPa, Gas, isochoric method	38.462
362.97 K, 987.6 kPa, Gas, isochoric method	43.478
362.98 K, 766.3 kPa, Gas, isochoric method	32.258
362.98 K, 987.6 kPa, Gas, isochoric method	43.478
372.89 K, 557 kPa, Gas, isochoric method	21.739
372.9 K, 89.1 kPa, Gas, isochoric method	3.3
372.9 K, 325.6 kPa, Gas, isochoric method	12.346
372.9 K, 557 kPa, Gas, isochoric method	21.739
372.91 K, 203.3 kPa, Gas, isochoric method	7.634
372.92 K, 792.3 kPa, Gas, isochoric method	32.258
372.93 K, 488 kPa, Gas, isochoric method	18.868
372.95 K, 1023.8 kPa, Gas, isochoric method	43.478
372.95 K, 1023.9 kPa, Gas, isochoric method	43.478
372.96 K, 931.7 kPa, Gas, isochoric method	38.462
372.97 K, 718.5 kPa, Gas, isochoric method	28.571
372.97 K, 718.6 kPa, Gas, isochoric method	28.571

Source: the NIST ThermoML archive (doi:10.1021/je300945r)
